From the supplement of paper PMC9013687
± gives the standard deviation of the averaged measurements.

What was measured:
Danio rerio embryo [1] = test: EC20 Yolk sac size_Increase; higher = less potent; details: exposure time: 4 dpf
Method: (§1)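 Zebrafish embryos (UFZ-OBI strain) were exposed from 2 hpf for 48 h (2 dpf) or 96 h (4 dpf) at 28 °C; spontaneous tail coiling was scored at 25 hpf. Morphological features from automated image analysis (FishInspector), heart rate and locomotor response were fitted with drc models. Quantal endpoints were dichotomised at 2.5 SD from controls and fitted with a log-logistic model; heart rate, pigmentation and STC were normalised to the replicate control mean. Betamethasone was tested as betamethasone dipropionate, diflorasone as diflorasone diacetate.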

Danio rerio embryo [2] = test: EC20 Body length_Decrease; higher = less potent
Method: as §1

Danio rerio embryo [3] = test: EC20 Any effect; higher = less potent
Method: as §1

Danio rerio embryo [4] = test: EC10 Pericard size_Increase; higher = less potent
Method: as §1

Danio rerio embryo [5] = test: EC20 LMR dark; higher = less potent; details: exposure time: 4 dpf
Method: as §1

Danio rerio embryo [6] = test: EC50 Otolith-eye distance_Decrease; details: exposure time: 4 dpf
Method: as §1

Danio rerio embryo [7] = test: EC50 Curvature_Increase
Method: as §1

Danio rerio embryo [8] = test: EC10 LMR dark; higher = less potent; details: exposure time: 4 dpf
Method: as §1

Danio rerio embryo [9] = test: EC20 Pericard size_Increase; higher = less potent
Method: as §1

Danio rerio embryo [10] = test: EC10 Otolith-eye distance_Decrease; higher = less potent; details: exposure time: 4 dpf
Method: as §1

Danio rerio embryo [11] = test: EC10 Curvature_Increase; higher = less potent
Method: as §1

Danio rerio embryo [12] = details: for EC50 STC decrease: exposure time: 25 h
Method: as §1

Danio rerio embryo [13] = test: EC20 Eye-jaw distance_Decrease; higher = less potent; details: exposure time: 4 dpf
Method: as §1

Danio rerio embryo [14] = test: EC20 Bladder size_Decrease; higher = less potent; details: exposure time: 4 dpf
Method: as §1

Danio rerio embryo [15] = test: EC20 Otolith-eye distance_Decrease; higher = less potent; details: exposure time: 4 dpf
Method: as §1

Danio rerio embryo [16] = test: EC10 Bladder size_Decrease; higher = less potent; details: exposure time: 4 dpf
Method: as §1

Danio rerio embryo [17] = test: EC20 Curvature_Increase; higher = less potent
Method: as §1

Danio rerio embryo [18] = test: EC50 Pericard size_Increase
Method: as §1

Danio rerio embryo [19] = test: EC50 Body length_Decrease
Method: as §1

Danio rerio embryo [20] = test: EC50 Yolk sac size_Increase; details: exposure time: 4 dpf
Method: as §1

Danio rerio embryo [21] = test: EC10 Body length_Decrease; higher = less potent
Method: as §1

Danio rerio embryo [22] = details: exposure time: 4 dpf
Method: as §1

Danio rerio embryo [23] = test: EC10 Any effect; higher = less potent
Method: as §1

Danio rerio embryo [24] = test: spontaneous tail coiling frequency (coils/min/embryo); higher = more spontaneous movement; details: 25 hpf
Method: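 Spontaneous tail coilings of zebrafish embryos exposed from 2 hpf were recorded at 24-25 hpf in 1-min videos and detected by a KNIME workflow from grey-value variance. Betamethasone was tested as the dipropionate, diflorasone as the diacetate.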

Danio rerio embryo [25] = test: EC10 Yolk sac size_Increase; higher = less potent; details: exposure time: 4 dpf
Method: as §1

Danio rerio embryo [26] = test: EC50 Eye-jaw distance_Decrease; details: exposure time: 4 dpf
Method: as §1

Danio rerio embryo [27] = test: EC50 Bladder size_Decrease; details: exposure time: 4 dpf
Method: as §1

Danio rerio embryo [28] = test: EC10 Eye-jaw distance_Decrease; higher = less potent; details: exposure time: 4 dpf
Method: as §1

For `CCCNCC(O)COc1ccccc1C(=O)CCc1ccccc1` (stereo unspecified) [Propafenone], the “EC20 Yolk sac size Increase” value (Danio rerio embryo [1]) was 18.4 µM, the “EC20 Body length Decrease” value (Danio rerio embryo [2]; exposure time: 2 dpf) was 34.1 µM and the “EC20 Any effect” value (Danio rerio embryo [3]; exposure time: 4 dpf) was 18.9 µM. The “EC10 Pericard size Increase” value (Danio rerio embryo [4]; exposure time: 4 dpf) was 17.8 µM, the “EC20 LMR dark” value (Danio rerio embryo [5]) was 4.28 µM and the “EC50 Otolith-eye distance Decrease” value (Danio rerio embryo [6]) was 35.5 µM. For the same molecule, the “EC50 Curvature Increase” value (Danio rerio embryo [7]; exposure time: 2 dpf) was 131 µM, the “EC10 LMR dark” value (Danio rerio embryo [8]) was 2.43 µM and the “EC20 Pericard size Increase” value (Danio rerio embryo [9]; exposure time: 4 dpf) was 18.8 µM. The “EC10 Otolith-eye distance Decrease” value (Danio rerio embryo [10]) was 33 µM, the “EC10 Curvature Increase” value (Danio rerio embryo [11]; exposure time: 2 dpf) was 27.6 µM and the “EC50 Any effect” value (Danio rerio embryo [12]; exposure time: 4 dpf) was 20.6 µM. For the same molecule, the “EC50 LMR ligth increase” value (Danio rerio embryo [12]; exposure time: 4 dpf) was 19.6 µM, the “EC50 Pigmentation increase” value (Danio rerio embryo [12]; exposure time: 4 dpf) was 34.7 µM and the “EC50 STC decrease” value (Danio rerio embryo [12]) was 47.5 µM. The “EC20 Eye-jaw distance Decrease” value (Danio rerio embryo [13]) was 18.8 µM, the “EC20 Bladder size Decrease” value (Danio rerio embryo [14]) was 7.09 µM and the “EC20 Otolith-eye distance Decrease” value (Danio rerio embryo [15]) was 33.9 µM. The “EC10 Bladder size Decrease” value (Danio rerio embryo [16]) was 6.71 µM, the “EC20 Curvature Increase” value (Danio rerio embryo [17]; exposure time: 2 dpf) was 49 µM and the “EC50 Pericard size Increase” value (Danio rerio embryo [18]; exposure time: 4 dpf) was 20.6 µM. The “EC50 Body length Decrease” value (Danio rerio embryo [19]; exposure time: 2 dpf) was 79.5 µM, the “EC50 Yolk sac size Increase” value (Danio rerio embryo [20]) was 20.5 µM and the “EC10 Body length Decrease” value (Danio rerio embryo [21]; exposure time: 2 dpf) was 20.8 µM. The “EC50 LMR dark” value (Danio rerio embryo [22]) was 11.2 µM, the “EC10 Any effect” value (Danio rerio embryo [23]; exposure time: 4 dpf) was 17.9 µM and the “spontaneous tail coiling frequency” value (Danio rerio embryo [24]; 8.8 µM) was 1.68. For the same molecule, the “spontaneous tail coiling frequency” value (Danio rerio embryo [24]; 13.2 µM) was 1.86, the “spontaneous tail coiling frequency” value (Danio rerio embryo [24]; 19.8 µM) was 1.81 ± 0.55 and the “spontaneous tail coiling frequency” value (Danio rerio embryo [24]; 29.6 µM) was 0.98. The “spontaneous tail coiling frequency” value (Danio rerio embryo [24]; 44.5 µM) was 1.23 ± 1.2, the “spontaneous tail coiling frequency” value (Danio rerio embryo [24]; 66.7 µM) was 1 and the “spontaneous tail coiling frequency” value (Danio rerio embryo [24]; 100 µM) was 0.422 ± 0.49. For the same molecule, the “spontaneous tail coiling frequency” value (Danio rerio embryo [24]; 142.9 µM) was 0.49, the “EC10 Yolk sac size Increase” value (Danio rerio embryo [25]) was 17.3 µM and the “EC50 Eye-jaw distance Decrease” value (Danio rerio embryo [26]) was 20.6 µM. The “EC50 Bladder size Decrease” value (Danio rerio embryo [27]) was 7.8 µM and the “EC10 Eye-jaw distance Decrease” value (Danio rerio embryo [28]) was 17.8 µM.

`CC(C)(C)C(O)C(Oc1ccc(Cl)cc1)n1cncn1` (stereo unspecified) [Triadimenol] was tested, and the “EC20 Yolk sac size Increase” value (Danio rerio embryo [1]) was 88.7 µM, the “EC20 Body length Decrease” value (Danio rerio embryo [2]; exposure time: 2 dpf) was 98.6 µM and the “EC20 Body length Decrease” value (Danio rerio embryo [2]; exposure time: 4 dpf) was 82.5 µM. For the same molecule, the “EC20 Any effect” value (Danio rerio embryo [3]; exposure time: 2 dpf) was 127 µM, the “EC20 Any effect” value (Danio rerio embryo [3]; exposure time: 4 dpf) was 31.7 µM and the “EC10 Pericard size Increase” value (Danio rerio embryo [4]; exposure time: 2 dpf) was 113 µM. The “EC10 Pericard size Increase” value (Danio rerio embryo [4]; exposure time: 4 dpf) was 64.1 µM, the “EC20 LMR dark” value (Danio rerio embryo [5]) was 10.7 µM and the “EC50 Otolith-eye distance Decrease” value (Danio rerio embryo [6]) was 97.6 µM. The “EC50 Curvature Increase” value (Danio rerio embryo [7]; exposure time: 2 dpf) was 136 µM, the “EC50 Curvature Increase” value (Danio rerio embryo [7]; exposure time: 4 dpf) was 117 µM and the “EC10 LMR dark” value (Danio rerio embryo [8]) was 6.51 µM. The “EC20 Pericard size Increase” value (Danio rerio embryo [9]; exposure time: 2 dpf) was 146 µM, the “EC20 Pericard size Increase” value (Danio rerio embryo [9]; exposure time: 4 dpf) was 71 µM and the “EC10 Otolith-eye distance Decrease” value (Danio rerio embryo [10]) was 63.4 µM. For the same molecule, the “EC10 Curvature Increase” value (Danio rerio embryo [11]; exposure time: 2 dpf) was 116 µM, the “EC10 Curvature Increase” value (Danio rerio embryo [11]; exposure time: 4 dpf) was 67.2 µM and the “EC50 Any effect” value (Danio rerio embryo [12]; exposure time: 2 dpf) was 133 µM. For the same molecule, the “EC50 Any effect” value (Danio rerio embryo [12]; exposure time: 4 dpf) was 45.5 µM, the “EC50 STC decrease” value (Danio rerio embryo [12]) was 169 µM and the “EC20 Eye-jaw distance Decrease” value (Danio rerio embryo [13]) was 41.2 µM. For the same molecule, the “EC20 Bladder size Decrease” value (Danio rerio embryo [14]) was 20.2 µM, the “EC20 Otolith-eye distance Decrease” value (Danio rerio embryo [15]) was 74.3 µM and the “EC10 Bladder size Decrease” value (Danio rerio embryo [16]) was 19.9 µM. The “EC20 Curvature Increase” value (Danio rerio embryo [17]; exposure time: 2 dpf) was 123 µM, the “EC20 Curvature Increase” value (Danio rerio embryo [17]; exposure time: 4 dpf) was 82.4 µM and the “EC50 Pericard size Increase” value (Danio rerio embryo [18]; exposure time: 2 dpf) was 225 µM. The “EC50 Pericard size Increase” value (Danio rerio embryo [18]; exposure time: 4 dpf) was 84.3 µM, the “EC50 Body length Decrease” value (Danio rerio embryo [19]; exposure time: 2 dpf) was 169 µM and the “EC50 Body length Decrease” value (Danio rerio embryo [19]; exposure time: 4 dpf) was 106 µM. The “EC50 Yolk sac size Increase” value (Danio rerio embryo [20]) was 114 µM, the “EC10 Body length Decrease” value (Danio rerio embryo [21]; exposure time: 2 dpf) was 71.8 µM and the “EC10 Body length Decrease” value (Danio rerio embryo [21]; exposure time: 4 dpf) was 71.3 µM. The “EC50 LMR dark” value (Danio rerio embryo [22]) was 25.2 µM, the “EC10 Any effect” value (Danio rerio embryo [23]; exposure time: 2 dpf) was 123 µM and the “EC10 Any effect” value (Danio rerio embryo [23]; exposure time: 4 dpf) was 25.7 µM. The “spontaneous tail coiling frequency” value (Danio rerio embryo [24]; 10.6 µM) was 2.49, the “spontaneous tail coiling frequency” value (Danio rerio embryo [24]; 21.1 µM) was 2.29 and the “spontaneous tail coiling frequency” value (Danio rerio embryo [24]; 42.3 µM) was 3.32 ± 0.78. The “spontaneous tail coiling frequency” value (Danio rerio embryo [24]; 84.5 µM) was 2.24 ± 0.39, the “spontaneous tail coiling frequency” value (Danio rerio embryo [24]; 118.3 µM) was 1.91 and the “spontaneous tail coiling frequency” value (Danio rerio embryo [24]; 169.1 µM) was 1.28 ± 0.37. For the same molecule, the “spontaneous tail coiling frequency” value (Danio rerio embryo [24]; 253.6 µM) was 0.06, the “spontaneous tail coiling frequency” value (Danio rerio embryo [24]; 338.1 µM) was 0 and the “EC10 Yolk sac size Increase” value (Danio rerio embryo [25]) was 76.8 µM. The “EC50 Eye-jaw distance Decrease” value (Danio rerio embryo [26]) was 51.4 µM, the “EC50 Bladder size Decrease” value (Danio rerio embryo [27]) was 20.7 µM and the “EC10 Eye-jaw distance Decrease” value (Danio rerio embryo [28]) was 36.1 µM.
